Results taken from patent publication US10259772B2, “Agents for maintaining undifferentiated state and promoting proliferation of stem cells” (NIPPON MENARD COSMETIC CO., LTD., priority 2014, dated 2019).

Experiments:
Assay type in all cases: cell-based
[1] = tested on: human somatic stem cells; test: In vitro wound healing test (scratch assay); settings: final concentration 0.001%, 100 × area of scratch region at 48 hours / area at 0 hours, no addition control 61
Procedure: The scratch assay (JP Publication (Kokai) No. 2013-18756), which is generally conducted as a method for evaluating the efficacy to promote wound healing, was conducted. Specifically, 5×10^5 cells of human somatic stem cells were seeded in a 3.5 cm dish, cultured using human stem cell culture medium to confluency, and then the bottom of the dish was scratched with the end of a sterilized tip to generate a gap in the cell sheet. Subsequently, the medium was changed to a medium supplemented with one or a mixture (fatty acid glycerides 2+3, fatty acid glycerides 4+5) of fatty acid glycerides 1 to 9 at a final concentration of 0.001% and the percent recovery of the cell gap was evaluated 48 hours later. To obtain the same area under a phase contrast microscope when obtaining images before and after the recovery, a mark that can be used as a reference point is provided near the scratch.
The scratch region 48 hours later was calculated as [scratch region 48 hours later]=100× [area of scratch region at 48 hours]/[area of scratch region at 0 hours] using a commercially available image analysis software. These test results are illustrated in Table 4 below.

[2] = tested on: human somatic stem cells; test: Evaluation of proliferation-promoting effect on stem cells (cell count); settings: 72 h, final concentration 0.001%, 3 days of culture, number of cells in no addition group (control) defined as 100%, read-out: Percent cell proliferation (%)
Procedure: 3×10^5 cells of human somatic stem cells (manufactured by DS Pharma Biomedical Co., Ltd.) cultured using a human stem cell culture medium (manufactured by Toyobo Co., Ltd.) were seeded in a 6 cm dish, one or a mixture (fatty acid glycerides 2+3, fatty acid glycerides 4+5) of fatty acid glycerides 1 to 9 was added at a final concentration of 0.001%, and culture was continued for 3 days. When a mixture of two fatty acid glycerides was used, the ratio thereof was 1:1 (weight ratio).
After 3 days of culture, cells were washed three times with PBS(−), then collected with a rubber policeman, and cells were counted for each culture.
The total number of cells without addition of fatty acid glycerides was defined as control and the control was defined as 100(%). Increase or decrease (%) of the number of cells with addition of fatty acid glycerides was calculated and the stem cell proliferation-promoting effect was evaluated.

[3] = tested on: murine embryonic stem cells (murine ES cells); test: Evaluation of undifferentiated state-maintaining effect on stem cells (Nanog gene expression, real-time PCR); settings: final concentration 0.001%, 3 days of culture, Nanog/Gapdh relative expression at onset of culture defined as 100% undifferentiation, no addition control 25
Excerpt: Using a medium prepared by adding fetal bovine serum (FBS, 15%, manufactured by Sigma-Aldrich Co. LLC), a nucleoside solution (100 times dilution, manufactured by Sumitomo Dainippon Pharma Co., Ltd.), a non-essential amino acids solution (100 times dilution, manufactured by Sumitomo Dainippon Pharma Co., Ltd.), a β2-mercaptoethanol solution (100 times dilution, manufactured by Sumitomo Dainippon Pharma Co., Ltd.), an L-glutamine solution (100 times dilution, manufactured by Sumitomo Dainippon Pharma Co., Ltd.), penicillin (100 units/mL, manufactured by Sigma-Aldrich Co. LLC), and streptomycin (100 μg/mL, manufactured by Sigma-Aldrich Co. LLC) to Dulbecco's Modified Eagle Medium (manufactured by Gibco), 5×10^5 cells of murine embryonic stem cells (murine ES cells: manufactured by COSMO BIO Co., Ltd.) were seeded in a 6 cm dish coated with gelatin (manufactured by Sigma-Aldrich Co. LLC), one or a mixture of fatty acid glycerides 1 to 9 was added to the medium at a final concentration of 0.001%, and culture was continued for 3 days.
After 3 days of culture, cells were collected and washed twice with PBS(−) and RNA was extracted from the cells with Trizol Reagent (Invitrogen). Extracted RNA was reverse-transcripted to cDNA using 2-STEP real-time PCR kit (Applied Biosystems) and then real-time PCR (95° C.: 15 seconds, 60° C.: 30 seconds, 40 cycles) was performed by AB17300 (Applied Biosystems) using the following primer sets to confirm the gene expression of Nanog (undifferentiation marker: Cell Res. 2007 January; 17 (1): 42-9. Review. Nanog and transcriptional networks in embryonic stem cell pluripotency. Pan G, Thomson J A.). Other operations were conducted according to a determined procedure.
The undifferentiated state-maintaining effect was evaluated as follows: the value of the relative gene expression level of Nanog (Nanog gene expression level/Gapdh gene expression level) calculated as the ratio of the Nanog mRNA expression level to the Gapdh mRNA expression level, which is an internal standard, in murine ES cells at the onset of culture was defined as 100% undifferentiation; and relative thereto, the value of the relative gene expression level of Nanog in the ES cells after 3 days of culture was calculated and evaluated.

Row | Structure (SMILES) | Scratch region 48 hours later (%) [1] [%] | activity at 0.001 % [2] [%] | Nanog expression level (%) after 3 days of culturing [3] [%]
1 | CCCCCC=CCC=CCCCCCCCC(=O)OCC(O)CO (stereo not drawn) [Fatty acid glyceride 1, 1-Monolinolein] | 54 | 115 | 33
2 | CCCCCC=CCC=CCCCCCCCC(=O)OCC(O)COC(=O)CCCCCCCCCCCCCCC (stereo not drawn) [Fatty acid glyceride 2, 1-Palmitin-3-linolein] | 30 | 160 | 71
3 | CCCCCC=CCC=CCCCCCCCC(=O)OCC(O)COC(=O)CCCCCCCC=CCC=CCCCCC (stereo not drawn) [Fatty acid glyceride 3, 1,3-Dilinolein] | 32 | 158 | 65
4 | CCCCCC=CCC=CCCCCCCCC(=O)OCC(O)COC(=O)CCCCCCCC=CCCCCCCCC (stereo not drawn) [Fatty acid glyceride 4, 1-Olein-3-linolein] | 38 | 148 | 59
5 | CCCCCC=CCC=CCCCCCCCC(=O)OCC(O)COC(=O)CCCCCCCCCCCCCCCCC (stereo not drawn) [Fatty acid glyceride 5, 1-Stearin-3-linolein] | 40 | 145 | 57
6 | CCCCCCCCC=CCCCCCCCC(=O)OCC(O)COC(=O)CCCCCCCC=CCCCCCCCC (stereo not drawn) [Fatty acid glyceride 6, 1,3-Diolein] | 44 | 130 | 43
7 | CCCCCC=CCC=CCCCCCCCC(=O)OC(CO)COC(=O)CCCCCCCCCCCCCCC (stereo not drawn) [Fatty acid glyceride 7, 1-Palmitin-2-linolein] | 45 | 129 | 41
8 | CCCCCCCC/C=C\CCCCCCCC(=O)OCC(COC(=O)CCCCCCC/C=C\CCCCCCCC)OC(=O)CCCCCCC/C=C\CCCCCCCC [Fatty acid glyceride 8, Triolein] | 52 | 118 | 35
9 | CCCCCC=CCC=CCCCCCCCC(=O)OCC(COC(=O)CCCCCCCC=CCC=CCCCCC)OC(=O)CCCCCCCC=CCC=CCCCCC (stereo not drawn) [Fatty acid glyceride 9, Trilinolein] | 53 | 117 | 34
10 | CCCCCCCCCCCCCCCC(=O)O [Palmitic acid, reference compound] | 60 | 102 | 27
11 | CCCCCCCCCCCCCCCC(=O)OCC(COC(=O)CCCCCCCCCCCCCCC)OC(=O)CCCCCCCCCCCCCCC [Tripalmitin, reference compound] | 59 | 103 | 26
